Data published in patent US5304367A, “In vivo brain imaging agent and method for diagnosis of psychiatric disorders” (New York University, priority 1990, dated 1994).
Read-outs that look alike come from different tables or passages of the source.

Assays:
[1] = test system: β-adrenergic receptor; test: quantitative autoradiography of brain sections from suicides and controls ([125I]iodopindolol); format: binding, human
Experimental: Beta Receptor Autoradiography
Iodopindolol is a well characterized βAR antagonist with a very high affinity (<1 nM) and specificity (Barovsky, K. et al., supra). Receptor binding studies are performed according to techniques well known in the art (see, for example, Kuhar, M. J., supra; Rainbow, T. C. et al., 1982, 1984, supra). A preferred method is described herein, although it will be apparent to one of skill in the art that the disclosed method may be modified according to the tissue preparation and ligand used.
Slides holding tissue sections are incubated for about 70 min at approximately 25° C. with 0.15 nM ^125 I-iodopindolol (New England Nuclear, 2200 Ci/mmole) in 25 mM Tris buffer, pH 7.5, containing 150 mM NaCl. Nonspecific binding is determined in the presence of 1 μM propranolol (see Examples, below). Zinterol, a selective β2 blocker, or metoprolol, a selective β1 antagonist, are added to the incubation buffer at 0.1 μM to achieve selective labeling of the β1 and β2 receptor subtypes, respectively. The incubation is followed by three 20 min washes in the same ice cold buffer. Slides are then dipped in ice cold distilled water to remove buffer salts, dried on a 50° C. slide warmer and apposed to ^3 H-sensitive film (Amersham ^3 H-hyperfilm) for 48-96 hours. The film is coexposed to commercial iodine standards (available from Amersham, for example). Film is developed manually using standard developer and fixer such as those available from the Eastman-Kodak Company. Sections are stained with cresyl violet and structures identified from the stained sections with the assistance of atlases and neuroanatomical texts such as: Barr M. L., The Human Nervous System: An Anatomical Viewpoint. Harper and Row, New York (1974); Carpenter M. B., Human Neuroanatomy. Williams and Wilkins, Baltimore (1976); DeArmond S. J. et al., Structure of the Human Brain : A Photographic Atlas. Oxford University Press, New York (1974); Nieuwenhuys R. et al., The Human Central Nervous System, Springer-Verlag, New York (1981 ), which references are hereby incorporated by reference.
Autoradiograms are analyzed by computerized image analysis systems well-known in the art (for example, with the aid of an IBM-PC). The autoradiograms are placed on a light box and a video camera is used for image acquisition. […] Standard curves derived from the iodine standards are used to convert gray level readings into equivalents of fmol ^125 I-iodopindolol / mg tissue. Specific binding is calculated by subtracting nonspecific from total binding.
Fourteen suicide and 14 pair-matched control brains were collected over 3 years from the medical examiner's offices in New York City and Jaffa, ISRAEL. […] The results of the coroner's examination as well as the results of broad-spectrum toxicological tests performed by the forensic laboratory were made available within 8 weeks. Only drug-free and pathology-free brains were included. For each suicide brain, a control matched for sex and age group with a PMD under 48 hours was collected the same day or within a few days, so that the pairs are also matched for storage time. The brains from each pair were dissected or sectioned on the same day and receptors were labeled in the same experiment, by an experimenter blind to the identity of the samples.
For autoradiography, slices from frontal cortical and anterior basal ganglia levels were sectioned in a Bright Cryotome (a refrigerated whole-body microtome) at -15° C. Sections of 40 μm were thaw- mounted onto gelatin-coated glass slides and βARs were labeled with [^125 I]iodopindolol (Pazos et al., Brain Res. 358:324-328 (1982)); Rainbow et al., Proc. Natl. Acad. Sci. U.S.A., 81:1585-1589 (1984)). Receptors were labeled with 150 pM iodopindolol, with or without 10^-6 M propranolol to define non-specific binding. The autoradiograms were developed after 48 or 72 hours. […]

[2] = test system: βAR; format: binding, human
[3] = test system: βAR; test: quantitative autoradiography, age dependence of βAR distribution in the human brain; format: binding

CC(C)NCC(O)COc1cccc2[nH]cc([125I])c12 (stereo not shown) [^125 I-iodopindolol]
nonspecific binding ([1]; FIG. 2, sagittal section, normal male, in the presence of propranolol): low and uniform throughout the section | [125I]iodopindolol bound ([1]; caudate, control, n=5): 13.2 ± 4.0 fm/mg tissue | [125I]iodopindolol bound ([1]; caudate, suicide, n=5): 15.4 ± 2.0 fm/mg tissue | [125I]iodopindolol bound ([1]; cingulate gyrus, control, n=8): 11.8 ± 3.3 fm/mg tissue | [125I]iodopindolol bound ([1]; cingulate gyrus, suicide, n=8, P < 0.04): 16.0 ± 2.7 fm/mg tissue | [125I]iodopindolol bound ([1]; frontalis inferior, control, n=6): 14.2 ± 4.0 fm/mg tissue | [125I]iodopindolol bound ([1]; frontalis inferior, suicide, n=6): 17.2 ± 4.1 fm/mg tissue | [125I]iodopindolol bound ([1]; frontalis medius, control, n=8): 9.3 ± 4.0 fm/mg tissue | [125I]iodopindolol bound ([1]; frontalis medius, suicide, n=8): 16.7 ± 3.5 fm/mg tissue | [125I]iodopindolol bound ([1]; frontalis superior, control, n=9): 10.8 ± 2.6 fm/mg tissue | [125I]iodopindolol bound ([1]; frontalis superior, suicide, n=9, P < 0.03): 17.2 ± 2.9 fm/mg tissue | [125I]iodopindolol bound ([1]; putamen, control, n=5): 19.5 ± 1.1 fm/mg tissue | [125I]iodopindolol bound ([1]; putamen, suicide, n=5): 17.4 ± 2.5 fm/mg tissue | [125I]iodopindolol bound ([1]; white matter (cortical), control, n=9): 5.6 ± 1.8 fm/mg tissue | [125I]iodopindolol bound ([1]; white matter (cortical), suicide, n=9): 6.7 ± 0.7 fm/mg tissue | specific binding ([2]; cingulate gyrus, external band, female, n=4): 1.20 ± 0.31 fmol [^125 I]iodopindolol/mg tissue | specific binding ([2]; cingulate gyrus, external band, male, n=10): 0.99 ± 0.18 fmol [^125 I]iodopindolol/mg tissue | specific binding ([2]; cingulate gyrus, internal band, female, n=4): 1.31 ± 0.24 fmol [^125 I]iodopindolol/mg tissue | specific binding ([2]; cingulate gyrus, internal band, male, n=10): 0.87 ± 0.16 fmol [^125 I]iodopindolol/mg tissue | specific binding ([2]; gyrus rectus, external band, female, n=3): 1.42 ± 0.13 fmol [^125 I]iodopindolol/mg tissue | specific binding ([2]; gyrus rectus, external band, male, n=9): 0.93 ± 0.18 fmol [^125 I]iodopindolol/mg tissue | specific binding ([2]; gyrus rectus, internal band, female, n=3): 1.24 ± 0.23 fmol [^125 I]iodopindolol/mg tissue | specific binding ([2]; gyrus rectus, internal band, male, n=9): 0.80 ± 0.13 fmol [^125 I]iodopindolol/mg tissue | specific binding ([2]; inferior frontal gyrus, external band, female, n=5): 1.08 ± 0.19 fmol [^125 I]iodopindolol/mg tissue | specific binding ([2]; inferior frontal gyrus, external band, male, n=11): 0.86 ± 0.13 fmol [^125 I]iodopindolol/mg tissue | specific binding ([2]; inferior frontal gyrus, internal band, female, n=5): 0.99 ± 0.16 fmol [^125 I]iodopindolol/mg tissue | specific binding ([2]; inferior frontal gyrus, internal band, male, n=11): 0.78 ± 0.13 fmol [^125 I]iodopindolol/mg tissue | specific binding ([2]; medial frontal gyrus, external band, female, n=5): 1.36 ± 0.23 fmol [^125 I]iodopindolol/mg tissue | specific binding ([2]; medial frontal gyrus, external band, male, n=13): 0.77 ± 0.12 fmol [^125 I]iodopindolol/mg tissue | specific binding ([2]; medial frontal gyrus, internal band, female, n=5): 1.09 ± 0.16 fmol [^125 I]iodopindolol/mg tissue | specific binding ([2]; medial frontal gyrus, internal band, male, n=12): 0.71 ± 0.10 fmol [^125 I]iodopindolol/mg tissue | specific binding ([2]; orbital gyri, external band, female, n=4): 1.46 ± 0.25 fmol [^125 I]iodopindolol/mg tissue | specific binding ([2]; orbital gyri, external band, male, n=11): 0.77 ± 0.12 fmol [^125 I]iodopindolol/mg tissue | specific binding ([2]; orbital gyri, internal band, female, n=4): 1.24 ± 0.18 fmol [^125 I]iodopindolol/mg tissue | specific binding ([2]; orbital gyri, internal band, male, n=10): 0.70 ± 0.10 fmol [^125 I]iodopindolol/mg tissue | specific binding ([2]; superior frontal gyrus, external band, female, n=6): 1.48 ± 0.25 fmol [^125 I]iodopindolol/mg tissue | specific binding ([2]; superior frontal gyrus, external band, male, n=16): 0.87 ± 0.09 fmol [^125 I]iodopindolol/mg tissue | specific binding ([2]; superior frontal gyrus, internal band, female, n=6): 1.24 ± 0.12 fmol [^125 I]iodopindolol/mg tissue | specific binding ([2]; superior frontal gyrus, internal band, male, n=16): 0.82 ± 0.07 fmol [^125 I]iodopindolol/mg tissue | specific binding ([2]; white matter, female, n=6): 0.78 ± 0.09 fmol [^125 I]iodopindolol/mg tissue | specific binding ([2]; white matter, male, n=16): 0.46 ± 0.04 fmol [^125 I]iodopindolol/mg tissue | specifically bound ([3]; caudate nucleus, head, male, N=5): 1.45 ± 0.34 fmol [^125 I]iodopindolol/mg tissue | specifically bound ([3]; caudate nucleus, tail, female, N=8): 1.15 ± 0.17 fmol [^125 I]iodopindolol/mg tissue | specifically bound ([3]; caudate nucleus, tail, male, N=14): 1.39 ± 0.23 fmol [^125 I]iodopindolol/mg tissue | specifically bound ([3]; claustrum, female, N=5): 0.64 ± 0.18 fmol [^125 I]iodopindolol/mg tissue | specifically bound ([3]; claustrum, male, N=9): 0.86 ± 0.14 fmol [^125 I]iodopindolol/mg tissue | specifically bound ([3]; entorhinal cortex, female, N=3): 0.94 ± 0.33 fmol [^125 I]iodopindolol/mg tissue | specifically bound ([3]; entorhinal cortex, male, N=10): 1.00 ± 0.19 fmol [^125 I]iodopindolol/mg tissue | specifically bound ([3]; globus pallidus, lateral, female, N=5): 0.78 ± 0.16 fmol [^125 I]iodopindolol/mg tissue | specifically bound ([3]; globus pallidus, lateral, male, N=8): 0.85 ± 0.20 fmol [^125 I]iodopindolol/mg tissue | specifically bound ([3]; globus pallidus, medial, female, N=3): 0.44 ± 0.09 fmol [^125 I]iodopindolol/mg tissue | specifically bound ([3]; globus pallidus, medial, male, N=8): 0.73 ± 0.17 fmol [^125 I]iodopindolol/mg tissue | specifically bound ([3]; hippocampus, CA fields, molecular layer, female, N=4): 1.70 ± 0.40 fmol [^125 I]iodopindolol/mg tissue | specifically bound ([3]; hippocampus, CA fields, molecular layer, male, N=13): 1.74 ± 0.26 fmol [^125 I]iodopindolol/mg tissue | specifically bound ([3]; hippocampus, CA fields, pyramidal layer, female, N=4): 1.70 ± 0.26 fmol [^125 I]iodopindolol/mg tissue | specifically bound ([3]; hippocampus, CA fields, pyramidal layer, male, N=13): 1.74 ± 0.26 fmol [^125 I]iodopindolol/mg tissue | specifically bound ([3]; inferior temporal gyrus, external band, female, N=5): 1.21 ± 0.14 fmol [^125 I]iodopindolol/mg tissue | specifically bound ([3]; inferior temporal gyrus, external band, male, N=13): 1.04 ± 0.16 fmol [^125 I]iodopindolol/mg tissue | specifically bound ([3]; inferior temporal gyrus, internal band, female, N=6): 1.11 ± 0.17 fmol [^125 I]iodopindolol/mg tissue | specifically bound ([3]; inferior temporal gyrus, internal band, male, N=13): 1.14 ± 0.17 fmol [^125 I]iodopindolol/mg tissue | specifically bound ([3]; lateral occipitotemporal gyrus, external band, female, N=6): 0.93 ± 0.19 fmol [^125 I]iodopindolol/mg tissue | specifically bound ([3]; lateral occipitotemporal gyrus, external band, male, N=13): 0.94 ± 0.13 fmol [^125 I]iodopindolol/mg tissue | specifically bound ([3]; lateral occipitotemporal gyrus, internal band, female, N=6): 0.86 ± 0.11 fmol [^125 I]iodopindolol/mg tissue | specifically bound ([3]; lateral occipitotemporal gyrus, internal band, male, N=13): 1.02 ± 0.14 fmol [^125 I]iodopindolol/mg tissue | specifically bound ([3]; medial temporal gyrus, external band, female, N=6): 1.03 ± 0.15 fmol [^125 I]iodopindolol/mg tissue | specifically bound ([3]; medial temporal gyrus, external band, male, N=13): 1.05 ± 0.18 fmol [^125 I]iodopindolol/mg tissue | specifically bound ([3]; medial temporal gyrus, internal band, female, N=6): 1.06 ± 0.15 fmol [^125 I]iodopindolol/mg tissue | specifically bound ([3]; medial temporal gyrus, internal band, male, N=13): 1.18 ± 0.17 fmol [^125 I]iodopindolol/mg tissue | specifically bound ([3]; parahippocampal gyrus, external band, female, N=7): 1.22 ± 0.32 fmol [^125 I]iodopindolol/mg tissue | specifically bound ([3]; parahippocampal gyrus, external band, male, N=13): 1.07 ± 0.19 fmol [^125 I]iodopindolol/mg tissue | specifically bound ([3]; parahippocampal gyrus, internal band, female, N=6): 1.01 ± 0.23 fmol [^125 I]iodopindolol/mg tissue | specifically bound ([3]; parahippocampal gyrus, internal band, male, N=13): 0.95 ± 0.15 fmol [^125 I]iodopindolol/mg tissue | specifically bound ([3]; putamen, female, N=6): 1.05 ± 0.22 fmol [^125 I]iodopindolol/mg tissue | specifically bound ([3]; putamen, male, N=11): 1.24 ± 0.18 fmol [^125 I]iodopindolol/mg tissue | specifically bound ([3]; subiculum, female, N=5): 1.35 ± 0.33 fmol [^125 I]iodopindolol/mg tissue | specifically bound ([3]; subiculum, male, N=12): 1.36 ± 0.20 fmol [^125 I]iodopindolol/mg tissue | specifically bound ([3]; superior temporal gyrus, external band, female, N=6): 1.18 ± 0.18 fmol [^125 I]iodopindolol/mg tissue | specifically bound ([3]; superior temporal gyrus, external band, male, N=14): 1.13 ± 0.16 fmol [^125 I]iodopindolol/mg tissue | specifically bound ([3]; superior temporal gyrus, internal band, female, N=6): 1.04 ± 0.13 fmol [^125 I]iodopindolol/mg tissue | specifically bound ([3]; superior temporal gyrus, internal band, male, N=14): 1.18 ± 0.15 fmol [^125 I]iodopindolol/mg tissue | specifically bound ([3]; white matter, female, N=8): 0.47 ± 0.09 fmol [^125 I]iodopindolol/mg tissue | specifically bound ([3]; white matter, male, N=18): 0.59 ± 0.07 fmol [^125 I]iodopindolol/mg tissue
